Several values for one entry are separate records, joined by “and”; a condition that tells them apart may be missing. Identical values can stand only once.
Legend:
SfurOBP2 = SfurOBP2 (Sogatella furcifera, UniProt V5T759); test: biochemical; assay type: binding
Summary of the method: (§1)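 In 50 mM Tris-HCl pH 7.4, odorants displace 1-NPN (2.0 µM) from 2.0 µM protein. Emission at 390–490 nm under 337 nm excitation is measured 2 min after competitor addition, in triplicate. Ki is obtained from IC50 and the 1-NPN dissociation constant.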

SfurOBP1 = SfurOBP1 (Sogatella furcifera, UniProt V5T8N5); test: biochemical; assay type: binding; conditions: for Fluorescence competitive binding assay, fluorescence intensity: OBP1, three replicate columns
SfurOBP1, sequence (V5T8N5 entry or part of it): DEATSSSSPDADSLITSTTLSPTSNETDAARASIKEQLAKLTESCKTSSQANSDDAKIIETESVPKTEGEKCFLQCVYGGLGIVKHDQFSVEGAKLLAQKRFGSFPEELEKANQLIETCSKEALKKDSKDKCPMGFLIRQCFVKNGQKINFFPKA
Summary of the method: as §1

SfurOBP3 = SfurOBP3 (Sogatella furcifera, UniProt V5T818); test: biochemical; assay type: binding; conditions: for Fluorescence competitive binding assay, fluorescence intensity: OBP3, three replicate columns
SfurOBP3, sequence (V5T818 entry or part of it): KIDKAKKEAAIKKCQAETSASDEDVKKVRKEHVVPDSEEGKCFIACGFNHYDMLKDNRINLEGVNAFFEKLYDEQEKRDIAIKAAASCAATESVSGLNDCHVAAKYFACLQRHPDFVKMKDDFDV
Summary of the method: as §1

SfurOBP11 = SfurOBP11 (Sogatella furcifera, UniProt V5T6E3); test: biochemical; assay type: binding
SfurOBP11, sequence (V5T6E3 entry or part of it): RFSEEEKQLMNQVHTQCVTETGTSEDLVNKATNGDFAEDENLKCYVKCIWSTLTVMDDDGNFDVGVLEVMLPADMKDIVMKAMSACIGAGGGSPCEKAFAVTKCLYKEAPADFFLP
Summary of the method: as §1

S. furcifera adults = test: Y-tube olfactometer behavioral trials; assay type: in vivo, Sogatella furcifera; conditions: odorant 50 µL/L vs hexane; adults
Summary of the method: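 Single S. furcifera adults (2 days post-emergence, starved 0.5 h) chose between odorant (100 µL of 50 µL/L on filter paper) and hexane control in a glass Y-tube, charcoal-filtered humidified air 300 mL/min per arm, 25 ± 1 °C, 50% RH. Choice scored if insect passed half an arm and stayed >1 min within 10 min; 45 insects per compound, chi-squared test.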

SfurOBP2, sequence (V5T759 entry or part of it): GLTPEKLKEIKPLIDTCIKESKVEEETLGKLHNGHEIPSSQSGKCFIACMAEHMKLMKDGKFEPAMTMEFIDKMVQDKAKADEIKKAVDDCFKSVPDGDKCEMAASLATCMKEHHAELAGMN

## CCCCCCCCC=O [nonanal]
SfurOBP2; SfurOBP2, protein and 1-NPN both 2.0 µM, competitor 2-20 µM, read-out: IC50
  IC50: > 20 µM
SfurOBP2; ligand concentration 2 (unit not given), replicate column 1 of 3
  Fluorescence competitive binding assay, OBP2 (raw fluorescence reading): 22495
SfurOBP2; ligand concentration 2 (unit not given), replicate column 2 of 3
  Fluorescence competitive binding assay, OBP2 (raw fluorescence reading): 22840
SfurOBP2; ligand concentration 2 (unit not given), replicate column 3 of 3
  Fluorescence competitive binding assay, OBP2 (raw fluorescence reading): 21233
SfurOBP2; ligand concentration 4 (unit not given), replicate column 1 of 3
  Fluorescence competitive binding assay, OBP2 (raw fluorescence reading): 23391
SfurOBP2; ligand concentration 4 (unit not given), replicate column 2 of 3
  Fluorescence competitive binding assay, OBP2 (raw fluorescence reading): 22604
SfurOBP2; ligand concentration 4 (unit not given), replicate column 3 of 3
  Fluorescence competitive binding assay, OBP2 (raw fluorescence reading): 23347
SfurOBP2; ligand concentration 6 (unit not given), replicate column 1 of 3
  Fluorescence competitive binding assay, OBP2 (raw fluorescence reading): 22973
SfurOBP2; ligand concentration 6 (unit not given), replicate column 2 of 3
  Fluorescence competitive binding assay, OBP2 (raw fluorescence reading): 22972
SfurOBP2; ligand concentration 6 (unit not given), replicate column 3 of 3
  Fluorescence competitive binding assay, OBP2 (raw fluorescence reading): 22119
SfurOBP2; ligand concentration 8 (unit not given), replicate column 1 of 3
  Fluorescence competitive binding assay, OBP2 (raw fluorescence reading): 20829
SfurOBP2; ligand concentration 8 (unit not given), replicate column 2 of 3
  Fluorescence competitive binding assay, OBP2 (raw fluorescence reading): 21110
SfurOBP2; ligand concentration 8 (unit not given), replicate column 3 of 3
  Fluorescence competitive binding assay, OBP2 (raw fluorescence reading): 19166
SfurOBP2; ligand concentration 10 (unit not given), replicate column 1 of 3
  Fluorescence competitive binding assay, OBP2 (raw fluorescence reading): 18739
SfurOBP2; ligand concentration 10 (unit not given), replicate column 2 of 3
  Fluorescence competitive binding assay, OBP2 (raw fluorescence reading): 19572
SfurOBP2; ligand concentration 10 (unit not given), replicate column 3 of 3
  Fluorescence competitive binding assay, OBP2 (raw fluorescence reading): 20059
SfurOBP2; ligand concentration 12 (unit not given), replicate column 1 of 3
  Fluorescence competitive binding assay, OBP2 (raw fluorescence reading): 18220
SfurOBP2; ligand concentration 12 (unit not given), replicate column 2 of 3
  Fluorescence competitive binding assay, OBP2 (raw fluorescence reading): 17338
SfurOBP2; ligand concentration 12 (unit not given), replicate column 3 of 3
  Fluorescence competitive binding assay, OBP2 (raw fluorescence reading): 19313
SfurOBP2; ligand concentration 14 (unit not given), replicate column 1 of 3
  Fluorescence competitive binding assay, OBP2 (raw fluorescence reading): 18807
SfurOBP2; ligand concentration 14 (unit not given), replicate column 2 of 3
  Fluorescence competitive binding assay, OBP2 (raw fluorescence reading): 18093
SfurOBP2; ligand concentration 14 (unit not given), replicate column 3 of 3
  Fluorescence competitive binding assay, OBP2 (raw fluorescence reading): 18015
SfurOBP2; ligand concentration 16 (unit not given), replicate column 1 of 3
  Fluorescence competitive binding assay, OBP2 (raw fluorescence reading): 15898
SfurOBP2; ligand concentration 16 (unit not given), replicate column 2 of 3
  Fluorescence competitive binding assay, OBP2 (raw fluorescence reading): 17144
SfurOBP2; ligand concentration 16 (unit not given), replicate column 3 of 3
  Fluorescence competitive binding assay, OBP2 (raw fluorescence reading): 15877
SfurOBP2; ligand concentration 18 (unit not given), replicate column 1 of 3
  Fluorescence competitive binding assay, OBP2 (raw fluorescence reading): 16375
SfurOBP2; ligand concentration 18 (unit not given), replicate column 2 of 3
  Fluorescence competitive binding assay, OBP2 (raw fluorescence reading): 13674
SfurOBP2; ligand concentration 18 (unit not given), replicate column 3 of 3
  Fluorescence competitive binding assay, OBP2 (raw fluorescence reading): 18894
SfurOBP2; ligand concentration 20 (unit not given), replicate column 1 of 3
  Fluorescence competitive binding assay, OBP2 (raw fluorescence reading): 16296
SfurOBP2; ligand concentration 20 (unit not given), replicate column 2 of 3
  Fluorescence competitive binding assay, OBP2 (raw fluorescence reading): 16765
SfurOBP2; ligand concentration 20 (unit not given), replicate column 3 of 3
  Fluorescence competitive binding assay, OBP2 (raw fluorescence reading): 17962
SfurOBP1; ligand concentration 2 (μM)
  Fluorescence competitive binding assay, fluorescence intensity: 7802 and 7217 and 8367
SfurOBP1; ligand concentration 4 (μM)
  Fluorescence competitive binding assay, fluorescence intensity: 10256 and 8383 and 7448
SfurOBP1; ligand concentration 6 (μM)
  Fluorescence competitive binding assay, fluorescence intensity: 7755 and 7709 and 7657
SfurOBP1; ligand concentration 8 (μM)
  Fluorescence competitive binding assay, fluorescence intensity: 8353 and 6725 and 6896
SfurOBP1; ligand concentration 10 (μM)
  Fluorescence competitive binding assay, fluorescence intensity: 7309 and 7612 and 6541
SfurOBP1; ligand concentration 12 (μM)
  Fluorescence competitive binding assay, fluorescence intensity: 7182 and 6932 and 8389
SfurOBP1; ligand concentration 14 (μM)
  Fluorescence competitive binding assay, fluorescence intensity: 7695 and 6348 and 8106
SfurOBP1; ligand concentration 16 (μM)
  Fluorescence competitive binding assay, fluorescence intensity: 7645 and 7087 and 7719
SfurOBP1; ligand concentration 18 (μM)
  Fluorescence competitive binding assay, fluorescence intensity: 9286 and 8583 and 8604
SfurOBP1; ligand concentration 20 (μM)
  Fluorescence competitive binding assay, fluorescence intensity: 13401 and 7898 and 7495
SfurOBP1; SfurOBP1, protein and 1-NPN both 2.0 µM, competitor 2-20 µM, read-out: IC50
  IC50: > 20 µM
SfurOBP3; ligand concentration 2
  Fluorescence competitive binding assay, fluorescence intensity: 61166 and 61638 and 64447
SfurOBP3; ligand concentration 4
  Fluorescence competitive binding assay, fluorescence intensity: 63416 and 64552 and 59405
SfurOBP3; ligand concentration 6
  Fluorescence competitive binding assay, fluorescence intensity: 55740 and 58561 and 59455
SfurOBP3; ligand concentration 8
  Fluorescence competitive binding assay, fluorescence intensity: 58358 and 53959 and 58376
SfurOBP3; ligand concentration 10
  Fluorescence competitive binding assay, fluorescence intensity: 51490 and 57535 and 53641
SfurOBP3; ligand concentration 12
  Fluorescence competitive binding assay, fluorescence intensity: 51816 and 53317 and 52476
SfurOBP3; ligand concentration 14
  Fluorescence competitive binding assay, fluorescence intensity: 50240 and 49815 and 48142
SfurOBP3; ligand concentration 16
  Fluorescence competitive binding assay, fluorescence intensity: 46199 and 48600 and 42686
SfurOBP3; ligand concentration 18
  Fluorescence competitive binding assay, fluorescence intensity: 47759 and 45050 and 48665
SfurOBP3; ligand concentration 20
  Fluorescence competitive binding assay, fluorescence intensity: 47298 and 41425 and 41649
SfurOBP3; SfurOBP3, protein and 1-NPN both 2.0 µM, competitor 2-20 µM, read-out: IC50
  IC50: > 20 µM
SfurOBP11; SfurOBP11, protein and 1-NPN both 2.0 µM, competitor 2-20 µM, read-out: IC50
  IC50: > 20 µM
SfurOBP11; ligand concentration 2, replicate 1
  Fluorescence intensity, fluorescence competitive binding assay, OBP11: 31191
SfurOBP11; ligand concentration 2, replicate 2
  Fluorescence intensity, fluorescence competitive binding assay, OBP11: 27026
SfurOBP11; ligand concentration 2, replicate 3
  Fluorescence intensity, fluorescence competitive binding assay, OBP11: 27251
SfurOBP11; ligand concentration 4, replicate 1
  Fluorescence intensity, fluorescence competitive binding assay, OBP11: 33062
SfurOBP11; ligand concentration 4, replicate 2
  Fluorescence intensity, fluorescence competitive binding assay, OBP11: 32235
SfurOBP11; ligand concentration 4, replicate 3
  Fluorescence intensity, fluorescence competitive binding assay, OBP11: 30749
SfurOBP11; ligand concentration 6, replicate 1
  Fluorescence intensity, fluorescence competitive binding assay, OBP11: 33680
SfurOBP11; ligand concentration 6, replicate 2
  Fluorescence intensity, fluorescence competitive binding assay, OBP11: 31560
SfurOBP11; ligand concentration 6, replicate 3
  Fluorescence intensity, fluorescence competitive binding assay, OBP11: 31826
SfurOBP11; ligand concentration 8, replicate 1
  Fluorescence intensity, fluorescence competitive binding assay, OBP11: 29344
SfurOBP11; ligand concentration 8, replicate 2
  Fluorescence intensity, fluorescence competitive binding assay, OBP11: 31482
SfurOBP11; ligand concentration 8, replicate 3
  Fluorescence intensity, fluorescence competitive binding assay, OBP11: 30513
SfurOBP11; ligand concentration 10, replicate 1
  Fluorescence intensity, fluorescence competitive binding assay, OBP11: 29393
SfurOBP11; ligand concentration 10, replicate 2
  Fluorescence intensity, fluorescence competitive binding assay, OBP11: 28581
SfurOBP11; ligand concentration 10, replicate 3
  Fluorescence intensity, fluorescence competitive binding assay, OBP11: 27079
SfurOBP11; ligand concentration 12, replicate 1
  Fluorescence intensity, fluorescence competitive binding assay, OBP11: 26945
SfurOBP11; ligand concentration 12, replicate 2
  Fluorescence intensity, fluorescence competitive binding assay, OBP11: 26618
SfurOBP11; ligand concentration 12, replicate 3
  Fluorescence intensity, fluorescence competitive binding assay, OBP11: 27193
SfurOBP11; ligand concentration 14, replicate 1
  Fluorescence intensity, fluorescence competitive binding assay, OBP11: 24856
SfurOBP11; ligand concentration 14, replicate 2
  Fluorescence intensity, fluorescence competitive binding assay, OBP11: 26161
SfurOBP11; ligand concentration 14, replicate 3
  Fluorescence intensity, fluorescence competitive binding assay, OBP11: 27383
SfurOBP11; ligand concentration 16, replicate 1
  Fluorescence intensity, fluorescence competitive binding assay, OBP11: 23278
SfurOBP11; ligand concentration 16, replicate 2
  Fluorescence intensity, fluorescence competitive binding assay, OBP11: 23147
SfurOBP11; ligand concentration 16, replicate 3
  Fluorescence intensity, fluorescence competitive binding assay, OBP11: 23455
SfurOBP11; ligand concentration 18, replicate 1
  Fluorescence intensity, fluorescence competitive binding assay, OBP11: 27255
SfurOBP11; ligand concentration 18, replicate 2
  Fluorescence intensity, fluorescence competitive binding assay, OBP11: 25416
SfurOBP11; ligand concentration 18, replicate 3
  Fluorescence intensity, fluorescence competitive binding assay, OBP11: 25774
SfurOBP11; ligand concentration 20, replicate 1
  Fluorescence intensity, fluorescence competitive binding assay, OBP11: 25007
SfurOBP11; ligand concentration 20, replicate 2
  Fluorescence intensity, fluorescence competitive binding assay, OBP11: 22862
SfurOBP11; ligand concentration 20, replicate 3
  Fluorescence intensity, fluorescence competitive binding assay, OBP11: 22028
S. furcifera adults
  number of insects choosing hexane arm: 12
  number of insects choosing volatilies arm: 17
  number of insects failed (no choice): 11

Reference: article PMC6409085, “Three odorant-binding proteins are involved in the behavioral response of Sogatella furcifera to rice plant volatiles” (PeerJ, 2019)
